Reference: US20260258003A1, “SLACK-ACTIVATING COMPOUNDS AND THEIR MEDICAL USE” (Johann Wolfgang Goethe-Universität Frankfurt am Main, priority 2023, published 2026)
Read-outs that look alike come from different tables or passages of the source. One block for each compound: values may come before it.

How the values were obtained:
[1] = In vivo pharmacokinetic study, plasma and brain levels by LC-MS; parameters: species or system mice
Description: The compounds pharmacokinetic properties were examined in vivo by administering the compounds intraperitoneally (i.p.) at 1 mg/kg in mice, and determining plasma and brain levels over 8 h by LC-MS measurements.
The pharmacokinetic study was performed by Pharmacelsus (Saarbrücken, Germany). In total 27 male C57BL/6 mice (8 weeks old, 23-31 g body weight, purchased from Janvier Labs, France) were used. The animals were housed in a temperature-controlled room (20-24° C.) and maintained in a 12 h light/dark cycle. Food and water were available ad libitum. All experimental procedures were approved by and conducted in accordance with the regulations of the local Animal Welfare authorities (Landesamt für Gesundheit und Verbraucherschutz, Abteilung Lebensmittel-und Veterinärwesen, Saarbrücken).
The animals were divided into 3 groups (9 mice/group) and a cassette dosing was performed, in which the mice received a single dose of 1 mg/kg body weight of 3-4 compounds (dissolved in 0.9% NaCl containing 20% cyclodextrine) i.p. simultaneously. From each animal 2 blood samples were collected from the retrobulbar venous plexus under short isoflurane anesthesia (at 0.25 h and 0.5 h from 3 mice; at 1 h and 2 h from 3 mice; and at 4 h and 8 h from 3 mice). Li-heparin was used as anticoagulant. Plasma samples were obtained by centrifugation for 10 min at 3000× g and 4° C. Immediately after the last blood sample the animal was sacrificed by cervical dislocation and the brain was removed and frozen in liquid nitrogen. Plasma and brain samples were stored at −80° C. until LC-MS analysis.
For all other compounds, the HPLC system consisted of a U-HPLC pump (Accela) and an AS Open auto sampler (Thermo Fisher Scientific, USA), and mass spectrometry was performed on a Q Exactive (Orbitrap) accurate mass spectrometer equipped with a heated electrospray (H-ESI) interface (Thermo Fisher Scientific, USA) connected to a PC running the standard software Chromeleon 7.2. For all compounds, the HPLC pump flow rate was set to 600 μl/min and the compounds were separated on an analytical column with a suitable pre-column. The pharmacokinetic analysis was performed applying a non-compartment model using the Kinetica 5.0 software (Thermo Scientific, Waltham, USA). All given parameters were obtained by trapezoid area calculation.

44 targets = test: SafetyScreen44 panel (Eurofins), whole panel; assay type: binding, mostly human; details: 10 μM, out of 44 targets
Description: (§1) Compound enzyme inhibition effect was calculated as a % inhibition of control enzyme activity. […] Measurements were performed in duplicate.

[2] = target: T1, alpha-1A adrenergic receptor (α1A) (Homo sapiens, UniProt P35348); test: SafetyScreen44 binding; details: substantial = higher than 50%
T1 construct: Eurofins SafetyScreen44
Description: as §1

[3] = target: T2, human ether-à-go-go (hERG) potassium channel (Homo sapiens, UniProt Q12809); test: SafetyScreen44 binding; details: 10 μM
T2 construct: Eurofins SafetyScreen44
Description: as §1

[4] = target: T3, serotonin 5-HT2A receptor (Homo sapiens, UniProt P28223); test: SafetyScreen44 binding; details: substantial = higher than 50%
T3 construct: Eurofins SafetyScreen44
Description: as §1

[5] = target: T4, serotonin 5-HT2B receptor (Homo sapiens, UniProt P41595); test: SafetyScreen44 binding; details: substantial = higher than 50%
T4 construct: Eurofins SafetyScreen44
Description: as §1

[6] = target: T5, norepinephrine transporter (NET) (Homo sapiens, UniProt P23975); test: SafetyScreen44 binding; details: substantial = higher than 50%
T5 construct: Eurofins SafetyScreen44

[7] = tested on: voltage-gated (KV) potassium channel; test: SafetyScreen44 binding; parameters: species or system rat; details: 10 μM
Description: as §1

motor function of mice [8] = test: Accelerating rotarod test (motor function); assay type: in vivo; details: dose ≥0.39 mg/kg i.p.
Description: (§2) Further studies were conducted to assess the in vivo efficacy of Compound 6 and Compound 10 in mice. In detail, experiments were performed in 8 to 16 weeks old C57BL/6N mice (Charles River, Sulzfeld, Germany) and animals with a genetic deletion of Slack (Slack^−/− mice^27) of either sex. Animals were housed on a 12 h light/dark cycle with access to food and water ad libitum. All experiments adhered to the guidelines of the International Association for the Study of Pain and to the ARRIVE (Animal Research: Reporting on In Vivo Experiments) guidelines, and were approved by and conducted in accordance with the regulations of the local Animal Welfare authorities (Regierungspräsidium Darmstadt, Germany). All behavioral studies were conducted during the light cycle of the day at room temperature (20-24° C.) by an observer blinded for the treatment of the animals and/or their genotype.
(§3) Accelerating rotarod and vertical pole test were performed as follows: Mice were placed on a rotarod treadmill (Ugo Basile, Italy) with increasing speed (4-40 rpm over 300 s), and were trained for 4-5 consecutive days. Only mice reaching the 300 seconds without falling off were included in the experiment. On the testing day, compounds were i.p. administered in a vehicle composed of 0.9% saline (Sigma-Aldrich) containing 10% 2-hydroxypropyl-β-cyclodextrine (ITW Reagents) and after 15 min the latency to fall off the accelerating rotarod was measured. Immediately thereafter, mice were placed head-upward on the top of a vertical pole with a rough surface (diameter 1 cm, height 40 cm) and the time until animals reached the ground was recorded (cut-off time 20 s). Means out of three trials for each time point were calculated for further analysis.

motor function of mice [9] = test: Vertical pole test (motor function); assay type: in vivo; details: dose ≥0.39 mg/kg i.p.
Description: as §2, §3

[10] = tested on: chloroquine-induced scratching behavior of mice; test: Chloroquine-induced acute itch (scratching) model, systemic treatment; assay type: in vivo; details: systemic administration of a low dose; preliminary experiments, data not shown
Description: as §2
Acute itch behavior of the mice was monitored using a histamine-based, chloroquine-based and SLIGRL-based acute itch behavior model. In these models, three to four days before the experiment day, the fur on the dorsolateral aspect of the neck was shaved under brief isoflurane anesthesia. On the testing day, mice were habituated for 30 min in separate plexiglass cylinders (30 cm diameter). Compounds were dissolved in 0.9% saline containing 10% 2-hydroxypropyl-β-cyclodextrine and i.p. administered in a volume of maximal 200 μL. 15 min thereafter, the pruritogens chloroquine (200 μg), SLIGRL (100 μg) or histamine (800 μg), all dissolved in 0.9% saline (20 μL), were injected subcutaneously into the nape of the neck. Numbers of scratching bouts directed to the nape of the neck were assessed over 30 min by videotaping.

[11] = male, C57BL/6, mouse, in vivo, ip, 1 mg/kg
[12] = mice, 1 mg/kg i.p., cassette dosing, plasma

T2 sequence (Q12809 whole entry): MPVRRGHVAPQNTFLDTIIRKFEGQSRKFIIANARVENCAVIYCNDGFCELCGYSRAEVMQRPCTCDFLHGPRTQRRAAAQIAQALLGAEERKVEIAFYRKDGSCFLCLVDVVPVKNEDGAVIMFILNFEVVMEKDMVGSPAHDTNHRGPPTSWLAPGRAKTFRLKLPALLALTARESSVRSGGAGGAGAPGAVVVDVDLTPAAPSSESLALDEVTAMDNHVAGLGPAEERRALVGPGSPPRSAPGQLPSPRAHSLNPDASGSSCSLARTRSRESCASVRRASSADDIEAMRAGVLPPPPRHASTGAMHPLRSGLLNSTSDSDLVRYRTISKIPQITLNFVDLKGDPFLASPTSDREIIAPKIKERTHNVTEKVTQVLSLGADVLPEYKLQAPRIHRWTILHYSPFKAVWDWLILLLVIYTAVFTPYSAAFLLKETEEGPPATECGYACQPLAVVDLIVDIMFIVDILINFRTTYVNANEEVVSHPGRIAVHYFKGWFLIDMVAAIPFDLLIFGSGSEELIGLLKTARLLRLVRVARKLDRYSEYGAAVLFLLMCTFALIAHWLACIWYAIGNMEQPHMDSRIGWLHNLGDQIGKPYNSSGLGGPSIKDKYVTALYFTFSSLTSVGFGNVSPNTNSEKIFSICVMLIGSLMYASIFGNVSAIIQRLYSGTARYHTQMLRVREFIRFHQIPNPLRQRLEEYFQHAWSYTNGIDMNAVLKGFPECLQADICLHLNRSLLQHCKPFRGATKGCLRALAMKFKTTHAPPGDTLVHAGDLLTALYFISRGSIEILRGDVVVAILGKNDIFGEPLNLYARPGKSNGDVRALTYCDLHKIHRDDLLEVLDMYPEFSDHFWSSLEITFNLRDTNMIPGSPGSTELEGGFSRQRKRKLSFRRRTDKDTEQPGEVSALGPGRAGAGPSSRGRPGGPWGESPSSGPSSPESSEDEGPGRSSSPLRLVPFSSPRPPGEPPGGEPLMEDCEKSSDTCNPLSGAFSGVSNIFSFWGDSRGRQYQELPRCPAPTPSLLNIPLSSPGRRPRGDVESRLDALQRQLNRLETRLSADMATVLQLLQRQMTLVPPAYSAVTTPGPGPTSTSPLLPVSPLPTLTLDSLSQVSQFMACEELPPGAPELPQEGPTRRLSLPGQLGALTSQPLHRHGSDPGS
T4 sequence (P41595 whole entry): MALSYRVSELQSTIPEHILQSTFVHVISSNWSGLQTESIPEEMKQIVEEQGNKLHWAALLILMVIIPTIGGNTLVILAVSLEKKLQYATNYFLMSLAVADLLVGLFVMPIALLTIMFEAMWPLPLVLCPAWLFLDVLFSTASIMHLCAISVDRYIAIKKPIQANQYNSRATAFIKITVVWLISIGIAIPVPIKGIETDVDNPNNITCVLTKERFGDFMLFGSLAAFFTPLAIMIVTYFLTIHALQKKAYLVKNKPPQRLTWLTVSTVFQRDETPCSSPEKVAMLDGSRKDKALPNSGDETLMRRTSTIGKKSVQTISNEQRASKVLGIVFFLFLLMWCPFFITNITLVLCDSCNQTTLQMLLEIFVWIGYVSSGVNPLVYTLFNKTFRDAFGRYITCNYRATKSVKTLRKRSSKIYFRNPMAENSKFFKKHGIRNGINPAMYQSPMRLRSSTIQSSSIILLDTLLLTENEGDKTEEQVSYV
T3 sequence (P28223 whole entry): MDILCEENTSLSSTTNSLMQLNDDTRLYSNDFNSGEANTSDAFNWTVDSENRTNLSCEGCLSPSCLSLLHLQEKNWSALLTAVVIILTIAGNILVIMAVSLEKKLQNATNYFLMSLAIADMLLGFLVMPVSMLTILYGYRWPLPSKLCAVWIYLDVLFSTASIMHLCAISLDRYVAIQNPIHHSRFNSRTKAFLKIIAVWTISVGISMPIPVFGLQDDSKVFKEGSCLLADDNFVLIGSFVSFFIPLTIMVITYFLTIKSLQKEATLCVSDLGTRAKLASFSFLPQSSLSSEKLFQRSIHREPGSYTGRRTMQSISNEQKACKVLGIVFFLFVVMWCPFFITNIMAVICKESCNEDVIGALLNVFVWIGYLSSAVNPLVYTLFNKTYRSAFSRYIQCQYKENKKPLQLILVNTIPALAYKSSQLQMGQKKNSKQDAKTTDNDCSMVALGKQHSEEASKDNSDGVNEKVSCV
T1 sequence (P35348 whole entry): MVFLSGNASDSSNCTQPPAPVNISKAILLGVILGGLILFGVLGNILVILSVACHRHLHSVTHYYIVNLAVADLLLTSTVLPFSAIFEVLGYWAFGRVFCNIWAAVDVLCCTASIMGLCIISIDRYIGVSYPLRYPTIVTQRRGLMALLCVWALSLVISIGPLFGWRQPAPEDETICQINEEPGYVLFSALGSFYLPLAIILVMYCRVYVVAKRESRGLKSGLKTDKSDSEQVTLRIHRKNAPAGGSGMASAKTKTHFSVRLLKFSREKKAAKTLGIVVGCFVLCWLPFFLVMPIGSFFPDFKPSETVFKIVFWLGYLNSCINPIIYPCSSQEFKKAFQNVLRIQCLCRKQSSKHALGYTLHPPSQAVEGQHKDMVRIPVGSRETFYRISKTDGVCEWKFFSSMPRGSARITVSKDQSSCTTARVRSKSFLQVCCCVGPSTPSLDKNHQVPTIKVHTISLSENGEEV
T5 sequence (P23975 whole entry): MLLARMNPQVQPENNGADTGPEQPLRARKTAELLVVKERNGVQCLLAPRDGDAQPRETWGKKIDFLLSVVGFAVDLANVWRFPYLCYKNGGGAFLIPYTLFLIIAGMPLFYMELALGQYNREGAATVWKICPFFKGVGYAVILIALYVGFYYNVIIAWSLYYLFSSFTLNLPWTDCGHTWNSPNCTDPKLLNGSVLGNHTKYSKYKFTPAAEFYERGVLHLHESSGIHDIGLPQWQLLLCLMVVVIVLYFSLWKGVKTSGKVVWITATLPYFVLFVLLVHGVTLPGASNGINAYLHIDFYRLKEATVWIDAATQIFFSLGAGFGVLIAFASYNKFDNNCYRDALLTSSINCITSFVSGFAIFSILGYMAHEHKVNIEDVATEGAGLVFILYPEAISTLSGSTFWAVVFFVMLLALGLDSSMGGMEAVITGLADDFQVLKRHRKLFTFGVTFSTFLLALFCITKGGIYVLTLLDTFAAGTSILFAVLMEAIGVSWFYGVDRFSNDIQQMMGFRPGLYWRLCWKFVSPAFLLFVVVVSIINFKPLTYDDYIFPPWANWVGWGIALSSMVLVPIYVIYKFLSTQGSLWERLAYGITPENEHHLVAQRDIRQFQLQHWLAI

SMILES: CN1CCN(C2=Nc3ccccc3Oc3ccc(C(F)(F)F)cc32)CC1 [Compound 2, 11-(4-Methylpiperazin-1-yl)-2-(trifluoromethyl)dibenzo[b,f][1,4]oxazepine]
- % AUCextra [1, 11]: 19.3%
- AUC(0-inf) [1, 11]: 84 ng·h/mL
- AUC(0-t) [1, 11]: 67.8 ng·h/mL
- CL/F [1, 11]: 199 mL/min/kg
- Cmax [1, 11]: 25.6 ng/mL
- Cz [1, 11]: 3.3 ng/mL
- Tmax [1, 11]: 15 min
- Vd/F [1, 11]: 58.5 L/kg
- half-life [1, 11]: 204 min
- tz [1, 11]: 8 h

SMILES: CN1CCCN(C2=Nc3ccccc3Oc3ccc(C(F)(F)F)cc32)CC1 [Compound 3, 11-(4-Methyl-1,4-diazepan-1-yl)-2-(trifluoromethyl)dibenzo[b,f][1,4]oxazepine]
- % AUCextra [1, 11]: 5.0%
- AUC(0-inf) [1, 11]: 58.3 ng·h/mL
- AUC(0-t) [1, 11]: 55.4 ng·h/mL
- CL/F [1, 11]: 286 mL/min/kg
- Cmax [1, 11]: 32.3 ng/mL
- Cz [1, 11]: 1.0 ng/mL
- Tmax [1, 11]: 30 min
- Vd/F [1, 11]: 50.1 L/kg
- half-life [1, 11]: 120 min
- tz [1, 11]: 8 h

SMILES: CN1CCN(C2=Nc3cc(F)ccc3Oc3ccc(C(F)(F)F)cc32)CC1 [Compound 4, 8-Fluoro-11-(4-methylpiperazin-1-yl)-2-(trifluoromethyl)dibenzo[b,f][1,4]oxazepine]
- % AUCextra [1, 11]: 11.4%
- AUC(0-inf) [1, 11]: 122 ng·h/mL
- AUC(0-t) [1, 11]: 108 ng·h/mL
- CL/F [1, 11]: 137 mL/min/kg
- Cmax [1, 11]: 40 ng/mL
- Cz [1, 11]: 4.1 ng/mL
- Tmax [1, 11]: 30 min
- Vd/F [1, 11]: 27.7 L/kg
- half-life [1, 11]: 138 min
- tz [1, 11]: 8 h

SMILES: OCCN1CCN(C2=Nc3ccccc3Oc3ccc(Cl)cc32)CC1 [Compound 5, 2-(4-(2-Chlorodibenzo[b,f][1,4]oxazepin-11-yl)piperazin-1-yl) ethan-1-ol]
- % AUCextra [1, 11]: 1.3%
- AUC(0-inf) [1, 11]: 50.2 ng·h/mL
- AUC(0-t) [1, 11]: 49.6 ng·h/mL
- CL/F [1, 11]: 332 mL/min/kg
- Cmax [1, 11]: 44 ng/mL
- Cz [1, 11]: 0.4 ng/mL
- Tmax [1, 11]: 15 min
- Vd/F [1, 11]: 33.1 L/kg
- half-life [1, 11]: 72 min
- tz [1, 11]: 8 h

SMILES: OCCOCCN1CCN(C2=Nc3ccccc3Sc3ccc(Cl)cc32)CC1 [Compound 7, 2-(2-(4-(2-Chlorodibenzo[b,f][1,4]thiazepin-11-yl)piperazin-1-yl)ethoxy) ethan-1-ol]
- % AUCextra [1, 11]: 0.9%
- AUC(0-inf) [1, 11]: 71.9 ng·h/mL
- AUC(0-t) [1, 11]: 71.2 ng·h/mL
- CL/F [1, 11]: 232 mL/min/kg
- Cmax [1, 11]: 87.2 ng/mL
- Cz [1, 11]: 0.3 ng/mL
- Tmax [1, 11]: 15 min
- Vd/F [1, 11]: 31.4 L/kg
- half-life [1, 11]: 96 min
- tz [1, 11]: 8 h

Continued, in another order:

- % AUCextra [1, 11]: 20.7%
- AUC(0-inf) [1, 11]: 851 ng·h/mL
- AUC(0-t) [1, 11]: 675 ng·h/mL
- CL/F [1, 11]: 19.6 mL/min/kg
- Cmax [1, 11]: 316 ng/mL
- Cz [1, 11]: 31.4 ng/mL
- Tmax [1, 11]: 15 min
- Vd/F [1, 11]: 6.58 L/kg
- half-life [1, 11]: 234 min
- tz [1, 11]: 8 h
SMILES: O=C(O)COCCN1CCN(C2=Nc3ccccc3Oc3ccc(C(F)(F)F)cc32)CC1 [Compound 8, 2-(2-(4-(2-(Trifluoromethyl)dibenzo[b,f][1,4]oxazepin-11-yl)piperazin-1-yl)ethoxy) acetic acid]

- % AUCextra [1, 11]: 0.6%
- AUC(0-inf) [1, 11]: 123 ng·h/mL
- AUC(0-t) [1, 11]: 123 ng·h/mL
- CL/F [1, 11]: 135 mL/min/kg
- Cmax [1, 11]: 242 ng/mL
- Cz [1, 11]: 0.3 ng/mL
- Tmax [1, 11]: 15 min
- Vd/F [1, 11]: 21.1 L/kg
- half-life [1, 11]: 108 min
- tz [1, 11]: 8 h
SMILES: O=C(O)COCCN1CCCN(C2=Nc3ccccc3Oc3ccc(C(F)(F)F)cc32)CC1 [Compound 9, 2-(2-(4-(2-(Trifluoromethyl)dibenzo[b,f][1,4]oxazepin-11-yl)-1,4-diazepan-1-yl)ethoxy) acetic acid]

- AUC(0-inf) ([1]; male, C57BL/6, mouse, ip, mice, 1 mg/kg i.p., cassette dosing, plasma, read-out: AUC (0-inf)): 116 ng·h/mL
- AUC(0-t) ([1]; male, C57BL/6, mouse, ip, mice, 1 mg/kg i.p., cassette dosing, plasma, read-out: AUC(0-tz)): 105 ng·h/mL
- CL/F ([1]; male, C57BL/6, mouse, ip, mice, 1 mg/kg i.p., cassette dosing, plasma, read-out: CL/f (converted)): 144 mL/min/kg
- Cmax ([1]; male, C57BL/6, mouse, ip, mice, 1 mg/kg i.p., cassette dosing, plasma, read-out: Cmax): 41.6 ng/mL
- Vd/F ([1]; male, C57BL/6, mouse, ip, mice, 1 mg/kg i.p., cassette dosing, plasma, read-out: Vz/f): 28.8 L/kg
- half-life ([1]; male, C57BL/6, mouse, ip, mice, 1 mg/kg i.p., cassette dosing, plasma, read-out: t1/2z (terminal elimination half-life) (converted)): 138 min
- Tmax ([1]; male, C57BL/6, mouse, ip, mice, 1 mg/kg i.p., cassette dosing, plasma, read-out: tmax): 15 min
- % AUCextra [1, 12]: 9.2%
- Cz [1, 12]: 3.2 ng/mL
- tz [1, 12]: 8 h
SMILES: CN1CCN(C2=Nc3ccccc3Oc3ccc(Cl)cc32)CC1 [Loxapine, 2-chloro-11-(4-methylpiperazin-1-yl)dibenzo[b,f][1,4]oxazepine, reference compound]
- number of targets with substantial binding inhibition (higher than 50%) (44 targets): 17
- inhibition at 10 µM [2]: > 50%
- binding to hERG potassium channel in the off-target screen [3]: did not measurably bind
- inhibition at 10 µM [4]: > 50%
- inhibition at 10 µM [5]: > 50%
- inhibition at 10 µM [6]: > 50%
- binding to voltage-gated (KV) potassium channel in the off-target screen [7]: did not measurably bind
- ability to perform in the accelerating rotarod test (motor function of mice [8]): significantly reduced the ability of the mice to perform
- ability to perform in the vertical pole test (motor function of mice [9]): significantly reduced the ability of the mice to perform
- chloroquine-induced scratching behavior of wildtype mice [10]: significantly alleviated
- scratching behavior in Slack knockout mice [10]: did not affect
